In ChEMBL document CHEMBL1201862, “PubChem BioAssay data set” (2004):
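Values below derive from 48-hour exposures of cells grown in 96-well plates, with endpoints linearly interpolated between the two concentrations bracketing the appropriate inhibition level. GI50 is the concentration that inhibits growth by half.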 Activity calls are given as the source filed them. Cut-off read from the data, not from the text of the source: active = GI50 up to about 1.1 µM and inactive = higher.

Key:
Test in all cases: NCI anticancer screen, dose series, 48 h
M14 = test system: M14
UACC-62 = test system: UACC-62
SK-OV-3 = test system: SK-OV-3
SF-539 = test system: SF-539
SK-MEL-5 = test system: SK-MEL-5
OVCAR-5 = test system: OVCAR-5
NCI-H23 = test system: NCI-H23
LOX IMVI = test system: LOX IMVI
HT-29 = test system: HT-29
MDA-N = test system: MDA-N
Malme-3M = test system: Malme-3M
BT-549 = test system: BT-549
HCT-15 = test system: HCT-15
EKVX = test system: EKVX
NCI-H460 = test system: NCI-H460
UO-31 = test system: UO-31
U-251 = test system: U-251
SR = test system: SR
SF-295 = test system: SF-295
HCT-116 = test system: HCT-116
RPMI-8226 = test system: RPMI-8226
T47D = test system: T47D
Hs-578T = test system: Hs-578T
K562 = test system: K562
TK-10 = test system: TK-10
MOLT-4 = test system: MOLT-4
CCRF-CEM = test system: CCRF-CEM
MCF7 = test system: MCF7
SK-MEL-28 = test system: SK-MEL-28
HOP-92 = test system: HOP-92
CAKI-1 = test system: CAKI-1
OVCAR-4 = test system: OVCAR-4
NCI/ADR-RES = test system: NCI/ADR-RES
KM12 = test system: KM12
MDA-MB-231 = test system: MDA-MB-231
SW-620 = test system: SW-620
UACC-257 = test system: UACC-257
HCC 2998 = test system: HCC 2998
786-0 = test system: 786-0
A549 = test system: A549
ACHN = test system: ACHN
MDA-MB-435 = test system: MDA-MB-435
SN12C = test system: SN12C
NCI-H226 = test system: NCI-H226
IGROV-1 = test system: IGROV-1
DU-145 = test system: DU-145
HL-60 = test system: HL-60
RXF 393 = test system: RXF 393
SNB-75 = test system: SNB-75
OVCAR-3 = test system: OVCAR-3
OVCAR-8 = test system: OVCAR-8
NCI-H522 = test system: NCI-H522
A498 = test system: A498
HOP-62 = test system: HOP-62
SK-MEL-2 = test system: SK-MEL-2
PC-3 = test system: PC-3
COLO 205 = test system: COLO 205
SF-268 = test system: SF-268
SNB-19 = test system: SNB-19

`C[As](C)SCC(NC(=O)CCC(N)C(=O)O)C(=O)NCC(=O)O.c1ccncc1` (centres undefined) was tested, and the GI50 (M14) was 0.22 µM (active), the GI50 (UACC-62) was 0.269 µM (active) and the GI50 (SK-OV-3) was 7.31 µM (inactive). For the same compound, the GI50 (SF-539) was 0.105 µM (active), the GI50 (SK-MEL-5) was 0.0966 µM (active) and the GI50 (OVCAR-5) was 0.436 µM (active). For the same compound, the GI50 (NCI-H23) was 0.284 µM (active), the GI50 (LOX IMVI) was 0.18 µM (active) and the GI50 (HT-29) was 0.431 µM (active). For the same compound, the GI50 (MDA-N) was 0.0431 µM (active), the GI50 (Malme-3M) was 0.0389 µM (active) and the GI50 (BT-549) was 0.168 µM (active). The GI50 (HCT-15) was 0.0702 µM, the GI50 (EKVX) was 0.182 µM (active) and the GI50 (NCI-H460) was 2.38 µM (inactive). The GI50 (UO-31) was 0.182 µM (active), the GI50 (U-251) was 0.902 µM (active) and the GI50 (SR) was 0.02 µM (active). For the same compound, the GI50 (SF-295) was 3.23 µM (inactive), the GI50 (HCT-116) was 0.198 µM (active) and the GI50 (RPMI-8226) was 0.0421 µM (active). For the same compound, the GI50 (T47D) was 0.0938 µM (active), the GI50 (Hs-578T) was 0.336 µM (active) and the GI50 (K562) was 0.0266 µM (active). For the same compound, the GI50 (TK-10) was 0.202 µM (active), the GI50 (MOLT-4) was 3.51 µM (inactive) and the GI50 (CCRF-CEM) was 0.0492 µM (active). For the same compound, the GI50 (MCF7) was 0.126 µM (active), the GI50 (SK-MEL-28) was 0.421 µM (active) and the GI50 (HOP-92) was 0.0843 µM (active). For the same compound, the GI50 (CAKI-1) was 0.0662 µM (active), the GI50 (OVCAR-4) was 0.592 µM (active) and the GI50 (NCI/ADR-RES) was 0.141 µM (active). The GI50 (KM12) was 0.361 µM (active), the GI50 (MDA-MB-231) was 0.261 µM (active) and the GI50 (SW-620) was 0.0855 µM (active). For the same compound, the GI50 (UACC-257) was 0.459 µM (active), the GI50 (HCC 2998) was 0.188 µM (active) and the GI50 (786-0) was 0.0891 µM (active). The GI50 (A549) was 0.984 µM (active), the GI50 (ACHN) was 0.117 µM (active) and the GI50 (MDA-MB-435) was 0.0843 µM (active). For the same compound, the GI50 (SN12C) was 0.506 µM (active), the GI50 (NCI-H226) was 0.361 µM (active) and the GI50 (IGROV-1) was 1.42 µM (inactive). The GI50 (DU-145) was 0.0867 µM (active), the GI50 (HL-60) was 0.0578 µM (active) and the GI50 (RXF 393) was 0.0471 µM (active). For the same compound, the GI50 (SNB-75) was 2.7 µM (inactive), the GI50 (OVCAR-3) was 0.0399 µM (active) and the GI50 (OVCAR-8) was 0.231 µM (active). For the same compound, the GI50 (NCI-H522) was 0.0824 µM (active), the GI50 (A498) was 0.437 µM (active) and the GI50 (HOP-62) was 0.885 µM (active). The GI50 (SK-MEL-2) was 0.338 µM (active), the GI50 (PC-3) was 0.268 µM (active) and the GI50 (COLO 205) was 0.105 µM (active). For the same compound, the GI50 (SF-268) was 0.547 µM (active) and the GI50 (SNB-19) was 3.68 µM (inactive).
